According to patent US20150224164A1, “TREATMENT OF AUTISM SPECTRUM DISORDERS USING GLYCYL-L-2-METHYLPROLYL-L-GLUMATIC ACID” (Neuren Pharmaceuticals Limited, priority 2013, published 2015):
Entries after “also recorded” stand apart in the source; their conditions may differ. Where a SMILES comes first, the peptide text is derived from it.

Legend:
[1] = system: subjects with Rett Syndrome; assay: Placebo controlled study in subjects with Rett Syndrome (Example 15); assay type: in vivo, human
Text: Thirty subjects with Rett Syndrome are recruited. Subjects are female and aged between […] (Mean=12.1 SD=4.4). All subjects have an IQ<60 and mutations of the MECP2 gene. Subjects also show ether spike activity in the EEG or an increase in lower frequency bands of the EEG as detected by Fast Fourier Transform (FFT). Subjects are instructed that concomitant medications are to be stable for at least six weeks prior to study. Subjects receiving medication to treat signs of inattention are tested in the morning and instructed to take their medication in the afternoon. Subjects with QTc interval >451 msec are excluded.
The study is a randomized double blind placebo controlled parallel study with three doses of either placebo, 10 mg/kg T.I.D oral G-2-MePE for five days, or 30 mg/kg T.I.D. oral G-2-MePE.
Subjects are tested at baseline using the following instruments: The Rett Syndrome Natural History/Clinical Severity Scale, Aberrant Behavior Checklist Community Edition (ABC), Vinelands, Clinical Global Impression of Severity (CGI-S) and their carers completed the Caregiver Strain Questionnaire (CSQ).
Subjects are brought into clinic on an inpatient basis to enable initial baseline recordings of EEG, ECG and respiratory rate continuously for 24 hours using polysomnography technology. Hand movements are also recorded using the Q-Sensor™. Derived EEG measures include: spikes per unit time in the EEG, overall power of frequency bands of the EEG, QTc and heart rate variability (HRV), and respiratory irregularities.
Adverse events are also recorded using standard safety measures and the SMURF elicitation of adverse events
Statistically, the effect of treatment with G-2-MePE is analysed by conducting a repeated analysis of covariance (ANCOVA) on the effect of treatment on change from baseline scores.

[2] = system: hippocampal slices of heterozygous Shank3-deficient mice; assay: Hippocampal slice electrophysiology, Shank3-deficient mice (Example 13); assay type: in vivo, mouse; conditions: 15 or 60 mg/kg oral b.i.d. 14 days
Method: 1 to 3 month old wild type and heterozygous Shank3-deficient mice are divided into 4 treatment groups: placebo treated wild-type, placebo treated Shank3-deficient group and two Shank3-deficient G-2-MePE treated groups. The animals are given placebo (water) or G-2-MePE formulated in water administered orally, b.i.d for 14 days. G-2-MePE is administered at two doses: 15 or 60 mg/kg.
Post-mortem, acute hippocampal slices (350 μm) are prepared from mice using a tissue chopper. Slices are maintained and experiments are conducted at 32° C. Slices are perfused with Ringer's solution containing (in mM): NaCl, 125.0; KCl, 2.5; MgSO4, 1.3; NaH2PO4, 1.0; NaHCO3, 26.2; CaCl2, 2.5; glucose, 11.0. […] Slices are maintained for 1 hr prior to establishment of a baseline of field excitatory postsynaptic potentials (fEPSPs) recorded from stratum radiatum in area CA1, evoked by stimulation of the Schaffer collateral-commissural afferents (100 μs pulses every 30 s) with bipolar tungsten electrodes placed into area CA3. […] The EPSP initial slope (mV/ms) is determined from the average waveform of four consecutive responses. […] AMPA receptor-mediated and NMDA receptor-mediated I/O relationships are measured in the presence of ionotropic glutamate receptor antagonists: […] APV (50 μM) and 6-cyano-7-nitroquinoxaline-2,3-dione CNQX (100 μM). […]

[3] = 30 mg/kg T.I.D. oral vs placebo

For `C[C@@]1(C(=O)N[C@@H](CCC(=O)O)C(=O)O)CCCN1C(=O)CN` [Example G-2-MePE, Glycyl-L-2-methylprolyl-L-glutamic acid] (HELM PEPTIDE1{G.[C[C@@]1(C(=O)[*:2])CCCN1[*:1]].E}$$$$V2.0), the EEG spike activity [1, 3] was “decreases spike activity”, the “power of the delta band of the EEG” value [1, 3] was “decreases the power of the delta band” and the “subscales Nonverbal Communication, Epilepsy/Seizures, Hand use” value [1, 3] was “significant effects”. For the same compound, the “Serious Adverse Events” value ([1]; 10 or 30 mg/kg T.I.D. oral) was “No Serious Adverse Events”, the “adverse events / tolerability” value ([1]; 10 or 30 mg/kg T.I.D. oral) was “no more adverse events than are present during treatment with placebo; also recorded: well tolerated” and the “increases in QTC” value ([1]; 10 or 30 mg/kg T.I.D. oral) was “No instances of increases in QTC”. The “respiratory rate or heart rate variability” value ([1]; 10 or 30 mg/kg T.I.D. oral) was “No effects”, the “Rett Syndrome Natural History/Clinical Severity Score, overall” value ([1]; human, in vivo) was “no significant effect overall” and the “spikes per unit time in the EEG, overall” value ([1]; overall treatment effect) was “significant overall reduction”. The “total hand movements per twenty-four hour period (Q-Sensor)” value ([1]; significant for 30 mg/kg T.I.D.) was “reduces total hand movements”, the “AMPA receptor-mediated field potentials, slope of I/O function” value [2] was “normalizes” and the “hippocampal LTP and its maintenance” value [2] was “increased hippocampal long-term potentiation”.
